Data published in patent US20230339968A1, “KRAS Gl2C INHIBITORS” (Eli Lilly and Company, priority 2019, published 2023).
Read-outs that look alike come from different tables or passages of the source.

How the values were obtained:
[1] = tested on: SW1573 (lung); assay: CellTiterGlo Cell Proliferation Assay (2D), SW1573; assay type: cell-based; details: Homo sapiens, 96 hours
Procedure: (§1) The purpose of this assay is to evaluate the growth of KRas G12C mutant tumor lines following treatment with a test compound. A panel of tumor cell lines harboring KRas G12C or other KRas mutations are collected (Table 25). All cell lines are from ATCC or other sources indicated.
(§2) Typically cells are cultured in RPMI1640 or Dulbecco's modified Eagle's medium (DMEM, GIBCO) supplemented with 10% FBS (GIBCO, Invitrogen). […] The cells are treated with compound for 96 hours, and then are analyzed for viability using the CellTiterGlo® Luminescent Cell Viability Assay® (Promega #G7572 for 2D) according to manufacturer's instructions and an EnVision™ plate reader. Nonlinear regression and sigmoidal dose-response curves are used to calculate the half maximal inhibitory concentration (IC50) with GraphPad Prism 4® software.

[2] = tested on: H1792 (lung); assay: CellTiterGlo Cell Proliferation Assay (2D), H1792; assay type: cell-based; details: Homo sapiens, NCI-H1792, 96 hours
Procedure: as §1, §2

[3] = tested on: H358 (lung); assay: CellTiterGlo Cell Proliferation Assay (2D), H358; assay type: cell-based; details: Homo sapiens, NCI-H358, 96 hours
Procedure: as §1, §2

[4] = tested on: KYSE-410 (esoph); assay: CellTiterGlo Cell Proliferation Assay (2D), KYSE-410; assay type: cell-based; details: Homo sapiens, 96 hours
Procedure: as §1, §2

[5] = tested on: LU99 (lung); assay: CellTiterGlo Cell Proliferation Assay (2D), LU99; assay type: cell-based; details: Homo sapiens, Lu-99, 96 hours
Procedure: as §1, §2

[6] = tested on: A549 (lung); assay: CellTiterGlo Cell Proliferation Assay (2D), A549 (KRas G12S); assay type: cell-based; details: Homo sapiens; for inhibition at 10 µM: read-out: % inh. @ 10 μM
Procedure: as §1, §2

[7] = tested on: SW1463 (colon); assay: CellTiterGlo Cell Proliferation Assay (2D), SW1463; assay type: cell-based; details: Homo sapiens, 96 hours
Procedure: as §1, §2

[8] = tested on: LXFA-983L (lung); assay: CellTiterGlo Cell Proliferation Assay (2D), LXFA-983L; assay type: cell-based; details: 96 hours
Procedure: as §1, §2

[9] = tested on: UM-UC-3 (bladder); assay: CellTiterGlo Cell Proliferation Assay (2D), UM-UC-3; assay type: cell-based; details: Homo sapiens, UMUC3, 96 hours
Procedure: as §1, §2

[10] = tested on: SW837 (rectum); assay: CellTiterGlo Cell Proliferation Assay (2D), SW837; assay type: cell-based; details: Homo sapiens, 96 hours
Procedure: as §1, §2

[11] = tested on: H358 xenograft; assay: Anti-tumor growth activity in lung cancer H358 xenograft mouse model; assay type: in vivo
Procedure: The purpose of this assay is to determine anti-tumor activities of test compounds (Example 34, 35, and 36) in a lung cancer H358 mouse xenograft model. H358 lung tumor cells (10×10^6) are implanted by subcutaneous injection in hind leg of nude female mice (Taconic Biosciences). A total of 4 mice in each group are used for the efficacy study. Treatment is initiated with oral administration (gavage) of the test compound or vehicle (20% Captisol®, 25 mM phosphate, pH 2.0 in 0.2 mL volume) once or twice daily for 28 days when the tumor size reaches approximately 300 mg. Tumor growth and body weight are monitored over time to evaluate efficacy and signs of toxicity. […] No significant animal body weight loss was observed through the whole study for these compounds.

[12] = tested on: HCC44 (lung); assay: CellTiterGlo Cell Proliferation Assay (2D), HCC44; assay type: cell-based; details: Homo sapiens, 96 hours
Procedure: as §1, §2

[13] = tested on: H23 (lung); assay: CellTiterGlo Cell Proliferation Assay (2D), H23; assay type: cell-based; details: 96 hours
Procedure: as §1, §2

[14] = A549 (lung, KRas G12S), 2D, 96 hours
[15] = A549 (lung, KRas G12S), 2D, 96 hours, 10 μM

SMILES | IC50 [1] [nM] | inhibition at 10 µM [1] [%] | IC50 [2] [nM] | inhibition at 10 µM [2] [%] | IC50 [3] [nM] | inhibition at 10 µM [3] [%] | IC50 [4] [nM] | inhibition at 10 µM [4] [%] | IC50 [5] [nM] | inhibition at 10 µM [5] [%] | IC50 [6, 14] [nM] | IC50 [7] [nM] | inhibition at 10 µM [7] [%] | IC50 [8] [nM] | inhibition at 10 µM [8] [%] | IC50 [9] [nM] | inhibition at 10 µM [9] [%] | IC50 [10] [nM] | inhibition at 10 µM [10] [%] | IC50 [12] [nM] | other results
C=CC(=O)N1CCN2C(=O)c3cc(F)c(-c4ccc(F)c5sc(N)c(C#N)c45)c(Cl)c3OCC[C@H]2C1 [Example 35, 4-[(13aS)-10-Chloro-8-fluoro-6-oxo-2-prop-2-enoyl-1,3,4,12,13,13a-hexahydropyrazino[2,1-d][1,5]benzoxazocin-9-yl]-2-amino-7-fluoro-benzothiophene-3-carbonitrile] | > 10000 | 44.7 | 1410 | 81.7 | 2 | 96.4 | 7970 | 68.3 | 173 | 96.6 | > 10000 | 5 | 94.3 | > 10000 | 83.1 | 1090 | 80.4 | 330 | 64.2 | 2230 | inhibition at 10 µM ([6]; A549, 96 h): 31.6%; % Regression (Day 12) ([11]; 30 mg/kg PO, BID): −72.14%; % Regression (Day 26) ([11]; 30 mg/kg PO, BID): −67.68%; inhibition at 10 µM [12]: 64.3%; IC50 [13]: 24 nM; inhibition at 10 µM [13]: 98%
C=CC(=O)N1CCN2C(=O)c3cc(F)c(-c4cccc5sc(N)c(C#N)c45)c(Cl)c3OCC[C@H]2C1 [Example 34, 4-[(13aS)-10-Chloro-8-fluoro-6-oxo-2-prop-2-enoyl-1,3,4,12,13,13a-hexahydropyrazino[2,1-d][1,5]benzoxazocin-9-yl]-2-amino-benzothiophene-3-carbonitrile] | 7820 | 60.8 | 4350 | 56.7 | 2 | 95.6 | > 10000 | 63.2 | 201 | 91.9 | > 10000 | 4 | 90.1 | > 10000 | 68.8 | 510 | 56.1 | 200 | 59.6 | > 10000 | inhibition at 10 µM [6, 15]: 18.8%; % Regression (Day 12) ([11]; 100 mg/kg PO, QD): −30.96%; % Regression (Day 26) ([11]; 100 mg/kg PO, QD): −6.28%; inhibition at 10 µM [12]: 41%; IC50 [13]: 26 nM; inhibition at 10 µM [13]: 96.8%
C=CC(=O)N1CCN2C(=O)c3cc(F)c(-c4ccc(F)c5sc(N)c(C#N)c45)c(Cl)c3OC[C@H]2C1 [Example 36, 4-[(4aR)-7-Chloro-9-fluoro-11-oxo-3-prop-2-enoyl-2,4,4a,5-tetrahydro-1H-pyrazino[2,1-c][1,4]benzoxazepine-8-yl]-2-amino-7-fluoro-benzothiophene-3-carbonitrile] | 9350 | 54.3 | 2030 | 97.4 | 8 | 89.1 | > 10000 | 43.1 | 349 | 99.1 | 9500 | 14 | 82.7 | > 10000 | 88 | 1860 | 91.6 | 570 | 58.7 | 2840 | inhibition at 10 µM [6, 15]: 62.1%; % Regression (Day 12) ([11]; 30 mg/kg PO, BID): −68.96%; inhibition at 10 µM [12]: 80.6%; IC50 [13]: 100 nM; inhibition at 10 µM [13]: 96.7%
C=CC(=O)N1CCN2C(=O)c3cc(Cl)c(-c4ccc(F)c5sc(N)nc45)c(Cl)c3OCC[C@H]2C1 (atropisomer, axis not shown) [Example 1, (13aS)-9-(2-Amino-7-fluoro-1,3-benzothiazol-4-yl)-8,10-dichloro-2-prop-2-enoyl-1,3,4,12,13,13a-hexahydropyrazino[2,1-d][1,5]benzoxazocin-6-one] | > 10000 | 35 | 3010 | 63.6 | 4 | 94.5 | 5840 | 64.6 | 303 | 89.9 | > 10000 | 6 | 95.3 | 3610 | 78.6 | 730 | 54.3 | 250 | 60.8 | > 10000 | inhibition at 10 µM [6, 15]: 19.1%; inhibition at 10 µM [12]: 46.4%; IC50 [13]: 45 nM; inhibition at 10 µM [13]: 98.2%
